Source: US20240189289A1, “INHIBITORS OF EPHB3 SIGNALING” (The Brigham and Women`s Hospital, Inc., priority 2021, published 2024)
Entries after “also recorded” stand apart in the source; their conditions may differ.

Tests used:
[1] = test system: N2A neuronal cells; assay: Neurotoxicity assay of astrocyte-conditioned medium (LDH release); type: cell-based, mouse; details: ACM from astrocytes pre-treated with compound, LDH release after 24 h
Protocol: Generation of astrocyte-conditioned medium (ACM). […] After 24 h, cells were extensively washed with 1×PBS, and incubated with fresh astrocyte complete medium for 48 h. Supernatants were spun down and kept at −80° C. until tested in migration and neurotoxicity assays.
Neurotoxicity Assay. N2A neuronal cells (#CCL-131, ATCC) were plated and pre-activated with 100 ng/mL mouse IFNγ (#485-MI-100; R&D Systems) for 24 h.
Thereafter, after extensive washing with 1×PBS, medium was replaced with ACM and after 24 h the supernatant was harvested for cytotoxicity evaluation by measuring LDH release with CytoTox 96 nonradioactive cytotoxicity assay kit (#G1780, Promega) following the manufacturer's protocol.

[2] = test system: primary astrocytes; assay: Seahorse Mito Stress test (oxygen consumption) in primary astrocytes; type: cell-based, mouse
Protocol: Oxygen consumption. […] Mito Stress assay was then performed with Seahorse XF Cell Mito Stress Test Kit (Agilent Technologies, #103015-100) following the manufacturer's manual. […] The assay medium (DEMEM with 10 mM Glucose, 1 mM pyruvate and 2 mM glutamine) was used during the assay. The OCR rate was normalized to cell number estimated using CyQUANT cell proliferation assay kit (Invitrogen, #C7026).

[3] = biological target: T1, EphB3 (Homo sapiens, UniProt P54753); assay: EphB3 radiometric kinase activity assay (33P ATP filter binding); type: biochemical; details: FIG. 1C
T1 sequence (P54753 34-998): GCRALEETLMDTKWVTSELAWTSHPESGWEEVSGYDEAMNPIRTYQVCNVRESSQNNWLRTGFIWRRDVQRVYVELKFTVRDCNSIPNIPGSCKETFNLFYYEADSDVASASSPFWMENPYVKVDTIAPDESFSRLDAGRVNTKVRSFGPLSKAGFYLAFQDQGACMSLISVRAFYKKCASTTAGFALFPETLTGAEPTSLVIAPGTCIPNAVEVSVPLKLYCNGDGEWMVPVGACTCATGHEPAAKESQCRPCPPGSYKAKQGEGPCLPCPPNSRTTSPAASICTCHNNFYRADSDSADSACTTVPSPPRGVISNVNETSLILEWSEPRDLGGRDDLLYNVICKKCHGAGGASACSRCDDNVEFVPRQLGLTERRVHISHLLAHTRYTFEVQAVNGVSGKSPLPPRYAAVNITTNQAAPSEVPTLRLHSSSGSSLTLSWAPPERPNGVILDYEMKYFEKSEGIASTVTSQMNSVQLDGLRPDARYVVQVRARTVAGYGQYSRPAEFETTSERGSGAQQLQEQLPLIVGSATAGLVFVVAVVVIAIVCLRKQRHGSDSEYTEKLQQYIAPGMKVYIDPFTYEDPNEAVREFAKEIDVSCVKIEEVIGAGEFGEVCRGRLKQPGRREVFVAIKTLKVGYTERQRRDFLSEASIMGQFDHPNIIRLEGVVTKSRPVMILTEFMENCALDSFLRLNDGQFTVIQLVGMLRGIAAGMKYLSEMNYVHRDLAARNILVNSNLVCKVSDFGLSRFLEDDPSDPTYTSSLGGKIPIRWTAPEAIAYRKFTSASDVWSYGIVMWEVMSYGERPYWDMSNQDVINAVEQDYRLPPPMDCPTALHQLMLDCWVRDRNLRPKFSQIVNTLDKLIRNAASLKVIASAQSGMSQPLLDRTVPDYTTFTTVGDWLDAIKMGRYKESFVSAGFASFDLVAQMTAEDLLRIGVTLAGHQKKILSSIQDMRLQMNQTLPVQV
Protocol: EphB3 radiometric kinase activity assay. To study the EphB3 kinase activity, a radioactive filter binding assay using 33P ATP was performed as described at the […] International Centre for Kinase profiling. […] The mix was harvested onto P81 filter plates and counts were read on a Topcount NXT.

O=C(Nc1ccccc1Cl)c1cnc2ccc(C3CCNCC3)cn12 [A38]
ACM neurotoxic activity [1]: decrease in neurotoxicity; also recorded: reduced ACM neurotoxic | ATP-linked respiration [2]: decreased | basal mitochondrial respiration [2]: decreased | maximal mitochondrial respiration [2]: decreased | EphB3 tyrosine kinase activity in a cell-free assay [3]: inhibited EphB3 tyrosine kinase activity in a dose-dependent manner
